Patent US20240124467A1, “FUSED PYRIMIDINE COMPOUNDS AS INHIBITORS OF MENIN-MLL INTERACTION” (Biomea Fusion, Inc., priority 2020, published 2024)
Like-named read-outs stand apart in the source and are kept apart here.

Columns and labels:
Type in all cases: cell-based
K-562 = test: Cell proliferation inhibition (CellTiter-Glo), K-562 cells; details: Homo sapiens, K-562 (BCR-ABL)
Method: (§1) The present example evaluates the ability of compounds described herein, inhibitors of Menin/MLL interaction, to inhibit cell proliferation. The proliferation inhibitory effect was investigated in human MLL-leukemia cells selected on the bases of MLL fusion proteins and listed in the table below.
(§2) ATP is present in all metabolically active cells and is considered as a marker for cell viability and proliferation. The metabolic cell activity was determined using the CellTiter-Glo kit from Promega, an ATP monitoring system based on the production of luminescence by the reaction of ATP with added UltraGlo® recombinant luciferase (Kawano et al., 2016, PLOS One, 8:11(7):e0158888), according to the supplier's experimental recommendations. The assay is based on a 96 well plate format. All experiments were carried out in duplicate in one test occasion.
(§3) Test items were dissolved at 20 mM in DMSO with purity ≥99.9% (Sigma catalog no. D8418) and stored at −20° C. Cells were maintained in RPMI-1640 medium (Invitrogen catalog no. 618700) supplemented with 10% of Heat Inactivated FBS (Invitrogen catalog no. 10500) and 1% Pen-Strep (Invitrogen catalog no. 15140) and cultured at 37° C. in a humidified incubator with 5% CO2. Cell lines were grown in suspension and the cell density was maintained in a range of 5×10^4-1×10^6 viable cells/ml where possible. Cells were pelleted at 130 g×5 min.
(§4) Serial dilutions of compounds 1 to 3 in DMSO 100% were prepared starting from a 2.5 mM solutions (prepared by diluting 1:8 the 20 mM stock solution) to generate a 7 point concentration response curve (CRC). Seven concentrations of test compounds (e.g., 5.00×10^−6-1.67×10^−6-5.56×10^−7-1.85×10^−7-6.17×10^−8-2.06×10^−8-6.86×10^−9 M) were assessed in duplicate in an individual test occasion in parallel in the selected cell lines. KO-539 was used as a reference compound and tested in duplicate at seven similar concentrations. 100% of proliferation was represented by the untreated cells (0.2% DMSO).
(§5) Cell proliferation inhibition was monitored at both the following end points: Day 4 (T4) and Day 7 (T7). For the appropriate cell density during the exponential cell growth and re-supply with fresh compound solution at T4, cells were diluted (1:4) with fresh medium containing the compound concentration (1×).
(§6) For each plate to test, one 0.4 μL copy plate and four 0.3 μL copy plates were stamped into 96-well plates not treated for cell adhesion (Sarstedt—cat. no. 82.1581.001) by acoustic liquid handling (Echo) at a concentration which was 500 fold the final assay concentration. Stamped plates were stored at −20° C.
(§7) On Day 0, the day of the experiment cell line suspensions were counted by Cell Viability Analyser, Vi-CELL (Beckman Coulter AY15292), and diluted with fresh medium to obtain the following cell densities: K-562 500 c/ml, MOLM-13 1,000 c/ml, MV4-11 10,000 c/ml, OCI-AML-3 500 c/ml, and U-937 500-1,000 c/ml. 200 μL/well and 150 μL/well of cell suspension were added into the 0.4 μL/well and 0.3 μL/well compound plates, respectively. Cell plate containing 200 μL/well suspension were incubated at 37° C. in a humidified incubator with 5% CO2. From each well of the 150 μL/well cell assay plate, 100 μL were harvested and transferred into a 96-well Optiplate (Perkin Elmer, cat. no. 6005290). Cell viability was measured as described below.
(§8) On Day 4, 150p/well of fresh medium was added into a new 0.3 μL/well copy compound plates. From each well of the 200 μL/well cell assay plate, 100 μL was sampled for the cell viability measurement as described below. 50p was harvested and added to the 150p/well compound plate prepared as described in the first point to dilute 1:4 the cell suspension. The cell assay plate diluted and containing 200 μL/well suspension was incubated at 37° C. in a humidified incubator with 5% CO2.
(§9) On Day 4, 150p/well of fresh medium was added into a new 0.3 μL/well copy compound plates. […]

MOLM-13 = test: Cell proliferation inhibition (CellTiter-Glo), MOLM-13 cells; details: Homo sapiens, MOLM-13 (MLL-AF9)
Method: as §1, §2, §3, §4, §5, §6, §7, §8, §9

MV4-11 = test: Cell proliferation inhibition (CellTiter-Glo), MV4-11 cells; details: Homo sapiens, MV4-11 (MLL-AF4)
Method: as §1, §2, §3, §4, §5, §6, §7, §8, §9

[1] = K562, 96 h, Day 4, read-out: K-562 IC50 μM (Day 4)
[2] = 96 h, Day 4, read-out: MOLM-13 Day IC50 μM (Day 4)*
[3] = 96 h, Day 4, read-out: MV-4:11 IC50 μM (Day 4)*
[4] = K562, 168 h, Day 7, read-out: K-562 IC50 μM (Day 7)*
[5] = 168 h, Day 7, read-out: MOLM-13 Day IC50 μM (Day 7)*
[6] = 168 h, Day 7, read-out: MV-4:11 IC50 μM (Day 7)*

| IC50 (K-562; [1]) [µM] | IC50 (MOLM-13; [2]) [µM] | IC50 (MV4-11; [3]) [µM] | IC50 (K-562; [4]) [µM] | IC50 (MOLM-13; [5]) [µM] | IC50 (MV4-11; [6]) [µM] | SMILES |
| --- | --- | --- | --- | --- | --- | --- |
| 4.34 | 1.56 | 1.5 | – | – | – | C=CC(=O)N[C@@H]1CCCN(Cc2ccnc(C(=O)Nc3ccc(-c4cc5c(C6CCOCC6)ncnc5[nH]4)cc3)c2)C1 [Compound B0700-516, (R)-4-((3-acrylamidopiperidin-1-yl)methyl)-N-(4-(4-(tetrahydro-2H-pyran-4-yl)-7H-pyrrolo[2,3-d]pyrimidin-6-yl)phenyl)picolinamide] |
| 0.616 | 0.28 | 0.314 | – | – | – | C=CC(=O)N[C@@H]1CCCN(Cc2ccc(F)c(C(=O)Nc3ccc(-c4cc5c(N6CCOCC6)ncnc5[nH]4)cc3)c2)C1 [Compound B0700-530] |
| > 10 | 0.492 | 0.318 | 9.87 | 1.07 | 0.37 | C=CC(=O)N[C@@H]1CCCN(Cc2ccnc(C(=O)Nc3ccc(-c4cc5c(N6CCC(C)(O)CC6)ncnc5[nH]4)cc3)c2)C1 [Compound B0700-569] |
| > 10 | 0.213 | 0.232 | – | – | – | O=C(/C=C/Cc1cnc[nH]1)N[C@@H]1CCCN(Cc2ccnc(C(=O)Nc3ccc(-c4cc5c(N6CCOCC6)ncnc5[nH]4)cc3)c2)C1 [Compound B0700-523] |
| 2.96 | 0.202 | 0.398 | 3.47 | 0.349 | 0.43 | C=CC(=O)N[C@@H]1CCC[C@H](Nc2ccnc(C(=O)Nc3ccc(-c4cc5c(N6CCOCC6)ncnc5[nH]4)cc3)c2)C1 [Compound B0700-607, 4-(((1S,3R)-3-acrylamidocyclohexyl)amino)-N-(4-(4-morpholino-7H-pyrrolo[2,3-d]pyrimidin-6-yl)phenyl)picolinamide] |
| > 10 | 0.683 | 0.764 | – | – | – | CN(C/C=C/C(=O)N[C@@H]1CCCN(Cc2ccnc(C(=O)Nc3ccc(-c4cc5c(N6CCOCC6)ncnc5[nH]4)cc3)c2)C1)C1CC1 [Compound B0700-524, (R,E)-4-((3-(4-(cyclopropyl(methyl)amino)but-2-enamido)piperidin-1-yl)methyl)-N-(4-(4-morpholino-7H-pyrrolo[2,3-d]pyrimidin-6-yl)phenyl)picolinamide] |
| 0.805 | 0.311 | 0.345 | – | – | – | C=CC(=O)N[C@@H]1CCCN(Cc2ccc(C)c(C(=O)Nc3ccc(-c4cc5c(N6CCOCC6)ncnc5[nH]4)cc3)c2)C1 [Compound B0700-531] |
| > 10 | 0.475 | 0.796 | – | – | – | C=CC(=O)N[C@@H]1CCCN(Cc2ccnc(C(=O)Nc3ccc(-c4cc5c(N6CCOCC6)ncnc5[nH]4)cc3F)c2)C1 [Compound B0700-549] |
| 0.074 | 0.069 | 0.051 | – | – | – | C=CS(=O)(=O)N[C@@H]1CCCN(Cc2ccnc(C(=O)Nc3ccc(-c4cc5c(N6CCOCC6)ncnc5[nH]4)cc3)c2)C1 [Compound B0700-333, (R)—N-(4-(4-morpholino-7H-pyrrolo[2,3-d]pyrimidin-6-yl)phenyl)-4-((3-(vinylsulfonamido)piperidin-1-yl)methyl)picolinamide] |

The remaining lines, values behind:

| SMILES | IC50 (K-562; [1]) [µM] | IC50 (MOLM-13; [2]) [µM] | IC50 (MV4-11; [3]) [µM] | IC50 (K-562; [4]) [µM] | IC50 (MOLM-13; [5]) [µM] | IC50 (MV4-11; [6]) [µM] |
| --- | --- | --- | --- | --- | --- | --- |
| C=CC(=O)N[C@@H]1CCCN(c2cccc(CS(=O)(=O)Nc3ccc(-c4cc5c(N6CCOCC6)ncnc5[nH]4)cc3)c2)C1 [Compound B0700-539] | > 10 | 0.374 | 0.436 | – | – | – |
| C=CC(=O)N[C@@H]1CCCN(c2cccc([C@H](C)S(=O)(=O)Nc3ccc(-c4cc5c(N6CCOCC6)ncnc5[nH]4)cc3)c2)C1 [Compound B0700-547] | > 10 | 1.39 | 0.418 | – | – | – |
| C=CC(=O)N[C@@H]1CCCN(c2cccc(C(C)S(=O)(=O)Nc3ccc(-c4cc5c(N6CCOCC6)ncnc5[nH]4)cc3F)c2)C1 (stereo partly drawn) [Compound B0700-559, N-((3R)-1-(3-(1-(N-(2-fluoro-4-(4-morpholino-7H-pyrrolo[2,3-d]pyrimidin-6-yl)phenyl)sulfamoyl)ethyl)phenyl)piperidin-3-yl)acrylamide] | > 10 | 3.91 | 1.56 | – | – | – |
| Cc1cc(C)n2c1C=C1C=CC(CCC(=O)NCCCCN(C)C/C=C/C(=O)Nc3ccc(CC(=O)Nc4ccc(-c5cc6c(N7CCOCC7)ncnc6[nH]5)cc4)cc3)=[N+]1[B-]2(F)F [Compound B0700-504] | > 10 | 1.23 | 1.6 | – | – | – |
| C=CC(=O)N1CCC(N2CCC(S(=O)(=O)Nc3ccc(-c4cc5c(N6CCOCC6)ncnc5[nH]4)cc3)CC2)CC1 [Compound B0700-610, 1′-acryloyl-N-(4-(4-morpholino-7H-pyrrolo[2,3-d]pyrimidin-6-yl)phenyl)-[1,4′-bipiperidine]-4-sulfonamide] | > 10 | 0.806 | 0.487 | > 10 | 0.458 | 0.29 |
| C=CC(=O)N1CCCC(N2CCC(S(=O)(=O)Nc3ccc(-c4cc5c(N6CCOCC6)ncnc5[nH]4)cc3)C2)C1 (stereo not drawn) [Compound B0700-611, 1-(1-acryloylpiperidin-3-yl)-N-(4-(4-morpholino-7H-pyrrolo[2,3-d]pyrimidin-6-yl)phenyl)pyrrolidine-3-sulfonamide] | > 10 | 0.963 | 0.629 | > 10 | 0.834 | 0.38 |
| C=CC(=O)N[C@H]1CCN(c2cccc(CS(=O)(=O)Nc3ccc(-c4cc5c(N6CCOCC6)ncnc5[nH]4)cc3)c2)C1 [Compound B0700-511, (S)—N-(1-(3-((N-(4-(4-morpholino-7H-pyrrolo[2,3-d]pyrimidin-6-yl)phenyl)sulfamoyl)methyl)phenyl)pyrrolidin-3-yl)acrylamide] | 8.31 | 0.185 | 0.113 | – | – | – |
| [2H]C1([2H])OC([2H])([2H])C([2H])([2H])N(c2ncnc3[nH]c(-c4ccc(NC(=O)c5cc(CN6CCC[C@@H](NC(=O)C=C)C6)ccn5)cc4)cc23)C1([2H])[2H] [Compound B0700-601, (R)-4-((3-acrylamidopiperidin-1-yl)methyl)-N-(4-(4-(morpholino-d8)-7H-pyrrolo[2,3-d]pyrimidin-6-yl)phenyl)picolinamide] | > 10 | 0.282 | 0.397 | – | – | – |
| C=CC(=O)N[C@H]1CCN(c2cccc(C(C)(C)C(=O)Nc3ccc(-c4cc5c(N6CCOCC6)ncnc5[nH]4)cc3)c2)C1 [Compound B0700-617, (S)—N-(1-(3-(2-methyl-1-((4-(4-morpholino-7H-pyrrolo[2,3-d]pyrimidin-6-yl)phenyl)amino)-1-oxopropan-2-yl)phenyl)pyrrolidin-3-yl)acrylamide] | 4.55 | 0.447 | 0.477 | 4.86 | 0.51 | 0.41 |
